Results as given in ChEMBL document CHEMBL1201862, “PubChem BioAssay data set” (2004).
Active and inactive are the calls of the source.

Legend:
[1] = inhibition of ARNT PAS-B/TACC3 complex formation – biochemical, AlphaScreen, cherry-picked samples, confirmation (AID 651703); type: functional, Homo sapiens;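 also: His-tagged ARNT PAS-B domain paired with GST-TACC3 E629A dimer coactivator fragment; potency of inhibitors that break up the complex and lower AlphaScreen signal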
Caspase-3 = molecular target: T1, Caspase-3 (Homo sapiens, UniProt P42574); assay: SAR Analysis of small molecule inhibitors of Sentrin-specific proteases (SENPs) using a Caspase-3 Selectivity assay. [Related pubchem assays (depositor defined):AID2540, AID2599, AID434973, AID489001]; type: functional
T1 sequence (P42574 whole entry): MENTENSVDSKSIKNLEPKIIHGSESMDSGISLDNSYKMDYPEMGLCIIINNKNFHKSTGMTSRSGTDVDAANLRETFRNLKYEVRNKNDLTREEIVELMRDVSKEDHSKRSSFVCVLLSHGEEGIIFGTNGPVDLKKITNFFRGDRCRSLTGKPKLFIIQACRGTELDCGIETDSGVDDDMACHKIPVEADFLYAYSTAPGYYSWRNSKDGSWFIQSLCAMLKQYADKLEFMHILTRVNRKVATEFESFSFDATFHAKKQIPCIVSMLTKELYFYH

[2] = molecular target: T2, Sentrin-specific protease 7 (Homo sapiens, UniProt Q9BQF6); assay: inhibition of human SENP7 cleavage activity – biochemical, luminescence, SAR follow-up (AID 504497); type: functional
T2 sequence (Q9BQF6 whole entry): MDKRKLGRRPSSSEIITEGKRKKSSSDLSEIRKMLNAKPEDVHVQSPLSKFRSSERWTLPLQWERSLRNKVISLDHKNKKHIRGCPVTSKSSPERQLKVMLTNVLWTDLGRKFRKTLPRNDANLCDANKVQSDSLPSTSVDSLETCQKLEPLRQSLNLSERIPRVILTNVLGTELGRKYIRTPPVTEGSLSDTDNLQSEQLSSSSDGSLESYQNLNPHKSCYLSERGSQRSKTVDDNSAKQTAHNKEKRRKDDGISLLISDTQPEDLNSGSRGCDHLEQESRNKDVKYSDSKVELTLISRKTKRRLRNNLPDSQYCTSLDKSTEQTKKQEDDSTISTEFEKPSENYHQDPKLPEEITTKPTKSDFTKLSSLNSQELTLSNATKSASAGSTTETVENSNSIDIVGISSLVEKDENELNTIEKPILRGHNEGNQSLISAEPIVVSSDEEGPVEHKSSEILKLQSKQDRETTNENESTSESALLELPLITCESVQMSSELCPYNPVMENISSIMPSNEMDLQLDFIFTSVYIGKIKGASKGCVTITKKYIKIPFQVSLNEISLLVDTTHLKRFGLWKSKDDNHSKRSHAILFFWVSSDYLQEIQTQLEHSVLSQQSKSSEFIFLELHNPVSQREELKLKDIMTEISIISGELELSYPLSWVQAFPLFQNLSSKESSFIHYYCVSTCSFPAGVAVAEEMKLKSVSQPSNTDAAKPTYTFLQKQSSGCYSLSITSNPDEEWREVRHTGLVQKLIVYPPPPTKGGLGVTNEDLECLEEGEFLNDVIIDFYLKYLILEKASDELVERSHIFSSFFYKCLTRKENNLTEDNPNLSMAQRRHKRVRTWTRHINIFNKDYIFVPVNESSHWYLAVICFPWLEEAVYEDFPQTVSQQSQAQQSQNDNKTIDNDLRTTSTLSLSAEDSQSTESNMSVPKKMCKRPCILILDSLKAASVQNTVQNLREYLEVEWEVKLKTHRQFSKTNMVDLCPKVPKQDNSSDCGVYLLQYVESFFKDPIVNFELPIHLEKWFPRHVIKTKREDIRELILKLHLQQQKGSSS

[3] = molecular target: T3, Sentrin-specific protease 6 (Homo sapiens, UniProt Q9GZR1); assay: SAR Analysis of small molecule inhibitors of Sentrin-specific protease 6 (SENP6) using a Luminescent assay. [Related pubchem assays (depositor defined):AID2582, AID2599]; type: functional
T3 sequence (Q9GZR1 whole entry): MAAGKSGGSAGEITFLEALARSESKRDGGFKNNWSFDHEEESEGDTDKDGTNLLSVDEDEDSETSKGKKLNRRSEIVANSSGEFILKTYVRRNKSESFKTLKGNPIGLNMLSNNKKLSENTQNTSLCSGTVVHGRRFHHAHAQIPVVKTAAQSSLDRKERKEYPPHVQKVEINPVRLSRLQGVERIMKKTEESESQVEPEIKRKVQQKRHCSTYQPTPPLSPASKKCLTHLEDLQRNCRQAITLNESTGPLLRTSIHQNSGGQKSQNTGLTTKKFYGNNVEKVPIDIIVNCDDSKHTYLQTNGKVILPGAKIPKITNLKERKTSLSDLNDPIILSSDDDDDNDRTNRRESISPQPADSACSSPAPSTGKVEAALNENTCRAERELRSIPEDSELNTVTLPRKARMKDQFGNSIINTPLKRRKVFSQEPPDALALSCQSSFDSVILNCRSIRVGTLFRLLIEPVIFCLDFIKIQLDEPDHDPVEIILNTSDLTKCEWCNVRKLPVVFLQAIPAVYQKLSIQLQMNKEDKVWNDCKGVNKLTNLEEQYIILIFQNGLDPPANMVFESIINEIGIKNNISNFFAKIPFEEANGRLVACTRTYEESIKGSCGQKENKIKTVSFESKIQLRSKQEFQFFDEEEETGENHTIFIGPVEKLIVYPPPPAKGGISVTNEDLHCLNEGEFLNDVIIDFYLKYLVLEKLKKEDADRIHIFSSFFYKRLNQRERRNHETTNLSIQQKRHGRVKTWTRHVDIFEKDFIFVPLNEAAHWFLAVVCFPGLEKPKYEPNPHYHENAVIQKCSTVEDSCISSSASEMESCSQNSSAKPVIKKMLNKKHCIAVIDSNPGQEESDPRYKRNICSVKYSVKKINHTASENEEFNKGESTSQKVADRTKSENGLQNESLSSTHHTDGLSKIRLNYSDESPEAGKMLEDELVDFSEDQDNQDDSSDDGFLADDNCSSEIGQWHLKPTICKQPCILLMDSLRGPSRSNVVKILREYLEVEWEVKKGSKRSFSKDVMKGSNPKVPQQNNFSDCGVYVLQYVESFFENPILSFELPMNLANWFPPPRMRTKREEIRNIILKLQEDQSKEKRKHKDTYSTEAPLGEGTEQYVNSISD

[4] = molecular target: T4, Sentrin-specific protease 8 (Homo sapiens, UniProt Q96LD8); assay: inhibition of human SENP8 cleavage activity – biochemical, luminescence, SAR follow-up (AID 504501); type: functional
T4 sequence (Q96LD8 whole entry): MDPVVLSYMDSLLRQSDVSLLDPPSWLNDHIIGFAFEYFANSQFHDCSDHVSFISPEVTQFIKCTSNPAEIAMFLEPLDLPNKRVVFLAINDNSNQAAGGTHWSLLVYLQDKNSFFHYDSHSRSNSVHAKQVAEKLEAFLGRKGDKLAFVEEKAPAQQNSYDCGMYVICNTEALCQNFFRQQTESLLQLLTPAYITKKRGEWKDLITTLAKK

[5] = molecular target: Protein disulfide-isomerase (Homo sapiens, UniProt P07237); assay: inhibition of PDI-driven insulin aggregation – biochemical, turbidity, absorbance, cherry-picked samples, dose response (AID 602350); type: functional
[6] = molecular target: T5, Apoptotic protease-activating factor 1 (Homo sapiens, UniProt O14727); assay: SAR analysis of small molecule Activators of Apaf-1 in a Fluorescent assay.; type: functional; details: read-out: EC50_Mean;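 also: caspase-3 cleavage of fluorogenic Rh110 DEVD substrate downstream of apoptosome activation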
T5 sequence (O14727 whole entry): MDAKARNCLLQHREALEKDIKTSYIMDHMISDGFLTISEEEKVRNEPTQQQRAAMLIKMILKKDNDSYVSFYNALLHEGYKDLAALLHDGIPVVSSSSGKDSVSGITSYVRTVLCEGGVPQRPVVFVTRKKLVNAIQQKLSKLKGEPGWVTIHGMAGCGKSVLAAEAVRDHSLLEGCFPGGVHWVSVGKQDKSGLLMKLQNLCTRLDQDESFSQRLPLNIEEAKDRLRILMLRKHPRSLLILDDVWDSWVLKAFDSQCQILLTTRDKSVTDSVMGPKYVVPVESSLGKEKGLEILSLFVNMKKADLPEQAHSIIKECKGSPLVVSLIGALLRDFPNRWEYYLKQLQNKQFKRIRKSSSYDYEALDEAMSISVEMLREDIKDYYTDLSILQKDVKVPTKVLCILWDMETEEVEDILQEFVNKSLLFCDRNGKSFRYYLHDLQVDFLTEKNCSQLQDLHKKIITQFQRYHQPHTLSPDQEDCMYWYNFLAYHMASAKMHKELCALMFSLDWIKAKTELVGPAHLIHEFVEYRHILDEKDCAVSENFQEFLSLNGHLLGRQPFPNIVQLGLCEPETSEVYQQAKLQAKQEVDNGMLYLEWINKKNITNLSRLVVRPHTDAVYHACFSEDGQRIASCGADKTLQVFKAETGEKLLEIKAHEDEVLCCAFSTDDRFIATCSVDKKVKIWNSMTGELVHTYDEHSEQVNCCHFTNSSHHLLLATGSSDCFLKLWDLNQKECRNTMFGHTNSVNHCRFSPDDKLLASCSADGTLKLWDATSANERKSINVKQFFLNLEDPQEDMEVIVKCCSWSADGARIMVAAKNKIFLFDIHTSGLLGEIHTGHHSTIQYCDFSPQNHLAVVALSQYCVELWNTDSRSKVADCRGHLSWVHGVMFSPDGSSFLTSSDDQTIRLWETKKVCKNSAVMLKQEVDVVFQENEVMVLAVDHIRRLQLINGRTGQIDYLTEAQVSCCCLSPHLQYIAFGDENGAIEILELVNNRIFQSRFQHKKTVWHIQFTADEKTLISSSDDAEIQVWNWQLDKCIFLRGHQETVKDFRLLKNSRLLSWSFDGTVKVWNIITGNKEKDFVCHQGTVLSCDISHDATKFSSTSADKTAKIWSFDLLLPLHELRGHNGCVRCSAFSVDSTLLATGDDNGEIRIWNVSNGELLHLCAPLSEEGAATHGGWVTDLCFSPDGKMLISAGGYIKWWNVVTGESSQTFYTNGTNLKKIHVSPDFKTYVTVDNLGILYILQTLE

[7] = molecular target: Neuropeptides B/W receptor type 1 (Homo sapiens, UniProt P48145); assay: human NPBW1 receptor blockade, IC50 – cell-based, fluorescence, dose response, set 5, late-stage follow-up (AID 588566); type: functional
[8] = molecular target: Melanin-concentrating hormone receptor 1 (Homo sapiens, UniProt Q99705); assay: Late-stage fluorescence-based counterscreen for antagonists of the G-protein coupled receptor 7 (GPR7): cell-based dose response assay to identify antagonists of the melanin-concentrating hormone receptor 1 (MCHR1) Set 5.; type: functional
[9] = molecular target: Dual specificity protein kinase CLK4 (Homo sapiens, UniProt Q9HAZ1); type: functional
[10] = molecular target: Cyclin-dependent kinase 8 (Homo sapiens, UniProt P49336); assay: Navigating the Kinome. Panel member name: CDK8; type: functional
[11] = molecular target: Aryl hydrocarbon receptor (Homo sapiens, UniProt P35869); details: Potency;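 also: confirmatory quantitative high-throughput screen measuring activation of the AhR signaling pathway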
Cytochrome P450 3A4 = Cytochrome P450 3A4 (Homo sapiens, UniProt P08684); details: Potency;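 also: confirmatory qHTS run detecting inhibitors and substrates of CYP3A4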
[12] = molecular target: Cyclin-dependent kinase 5 (Homo sapiens, UniProt Q00535); type: functional;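 also: CDK5 measured as one member of a kinase profiling panel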
Nonstructural protein 1 = Nonstructural protein 1 (Influenza A virus, UniProt Q194T2); type: functional, Influenza A virus (A/California/07/2009(H1N1))
[13] = molecular target: 26S proteasome non-ATPase regulatory subunit 14 (Homo sapiens, UniProt O00487); assay: inhibition of proteasome subunit RPN11 – biochemical, fluorescence polarization, uHTS hits, confirmation (AID 602368); type: functional
Prothrombin = Prothrombin (Bos taurus, UniProt P00735); assay: thrombin protease inhibitors – biochemical, fluorescence polarization, uHTS hits, dose response (AID 602369); type: functional
[14] = test system: Streptococcus sp. 'group A'; assay: Streptococcus pyogenes SK(-)GAS viability under kanamycin – luminescence, BacTiterGlo, confirmation, counter-screen for streptokinase expression inhibitor project, dose response (AID 1900); type: functional, organism-based
Streptococcus = assay: GAS UMAA2166 growth inhibition – luminescence, BacTiterGlo, counter-screen for streptokinase expression inhibitor project, dose response (AID 1915); type: functional, organism-based;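 also: potency for reduction of bacterial viability or growth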
[15] = molecular target: 72 kDa type IV collagenase (Homo sapiens, UniProt P08253); assay: Dose Response validation of uHTS RPN11 inhibitor hits using a MMP-2 Fluorescence assay.; type: functional
Chain of 72 kDa type IV collagenase (P08253 whole entry): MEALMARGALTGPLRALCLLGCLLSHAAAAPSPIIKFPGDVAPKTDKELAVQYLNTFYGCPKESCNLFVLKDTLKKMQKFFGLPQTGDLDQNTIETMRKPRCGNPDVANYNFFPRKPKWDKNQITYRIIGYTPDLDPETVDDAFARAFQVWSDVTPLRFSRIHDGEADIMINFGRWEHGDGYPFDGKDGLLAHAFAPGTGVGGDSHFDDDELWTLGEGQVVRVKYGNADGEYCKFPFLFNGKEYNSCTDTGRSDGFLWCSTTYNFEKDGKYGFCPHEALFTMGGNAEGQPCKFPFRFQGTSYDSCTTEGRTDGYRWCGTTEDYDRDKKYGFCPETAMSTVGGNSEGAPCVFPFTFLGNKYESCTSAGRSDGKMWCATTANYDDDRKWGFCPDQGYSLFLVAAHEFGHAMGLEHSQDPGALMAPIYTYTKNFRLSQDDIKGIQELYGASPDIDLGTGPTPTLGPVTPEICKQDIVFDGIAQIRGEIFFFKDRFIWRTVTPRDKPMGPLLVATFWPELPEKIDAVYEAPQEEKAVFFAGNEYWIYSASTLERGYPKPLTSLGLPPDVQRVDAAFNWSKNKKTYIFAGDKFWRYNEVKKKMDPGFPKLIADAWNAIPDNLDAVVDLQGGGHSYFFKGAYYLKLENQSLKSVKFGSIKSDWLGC

Chain of Melanin-concentrating hormone receptor 1 (Q99705 whole entry): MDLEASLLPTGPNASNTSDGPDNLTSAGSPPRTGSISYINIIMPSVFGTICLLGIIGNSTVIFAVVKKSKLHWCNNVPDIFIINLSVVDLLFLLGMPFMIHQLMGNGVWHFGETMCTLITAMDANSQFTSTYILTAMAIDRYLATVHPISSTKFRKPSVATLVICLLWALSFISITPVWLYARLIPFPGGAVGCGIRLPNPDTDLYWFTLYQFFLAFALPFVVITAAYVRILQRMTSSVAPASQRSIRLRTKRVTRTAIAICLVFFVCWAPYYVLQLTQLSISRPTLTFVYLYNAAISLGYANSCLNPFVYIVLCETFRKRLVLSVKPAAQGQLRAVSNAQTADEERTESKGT
Chain of Protein disulfide-isomerase (P07237 whole entry): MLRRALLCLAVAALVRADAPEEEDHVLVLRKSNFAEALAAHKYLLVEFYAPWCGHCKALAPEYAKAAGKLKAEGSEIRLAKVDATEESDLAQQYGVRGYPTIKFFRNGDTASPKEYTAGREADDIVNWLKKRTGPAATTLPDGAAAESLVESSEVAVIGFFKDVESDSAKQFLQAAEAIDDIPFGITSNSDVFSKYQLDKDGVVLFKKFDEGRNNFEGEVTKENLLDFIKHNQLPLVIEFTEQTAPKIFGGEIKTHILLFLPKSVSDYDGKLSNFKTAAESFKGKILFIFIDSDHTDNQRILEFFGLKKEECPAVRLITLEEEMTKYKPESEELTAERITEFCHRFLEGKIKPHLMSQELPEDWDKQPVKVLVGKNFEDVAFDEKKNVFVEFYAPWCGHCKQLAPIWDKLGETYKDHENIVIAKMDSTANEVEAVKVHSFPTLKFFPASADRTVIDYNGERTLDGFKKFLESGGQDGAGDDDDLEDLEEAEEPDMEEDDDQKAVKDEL
Chain of Cyclin-dependent kinase 8 (P49336 whole entry): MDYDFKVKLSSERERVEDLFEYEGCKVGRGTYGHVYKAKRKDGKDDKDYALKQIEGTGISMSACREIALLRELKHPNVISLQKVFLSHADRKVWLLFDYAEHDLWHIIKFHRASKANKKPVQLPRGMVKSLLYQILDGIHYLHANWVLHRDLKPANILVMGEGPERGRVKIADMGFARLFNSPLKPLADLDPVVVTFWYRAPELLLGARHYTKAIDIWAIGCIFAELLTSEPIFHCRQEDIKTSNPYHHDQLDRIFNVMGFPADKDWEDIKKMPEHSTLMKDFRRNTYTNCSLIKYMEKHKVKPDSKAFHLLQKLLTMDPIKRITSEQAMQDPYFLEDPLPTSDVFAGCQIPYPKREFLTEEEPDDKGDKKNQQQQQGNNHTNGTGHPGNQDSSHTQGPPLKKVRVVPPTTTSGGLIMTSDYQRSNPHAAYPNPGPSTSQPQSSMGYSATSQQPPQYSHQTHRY
Chain of Neuropeptides B/W receptor type 1 (P48145 whole entry): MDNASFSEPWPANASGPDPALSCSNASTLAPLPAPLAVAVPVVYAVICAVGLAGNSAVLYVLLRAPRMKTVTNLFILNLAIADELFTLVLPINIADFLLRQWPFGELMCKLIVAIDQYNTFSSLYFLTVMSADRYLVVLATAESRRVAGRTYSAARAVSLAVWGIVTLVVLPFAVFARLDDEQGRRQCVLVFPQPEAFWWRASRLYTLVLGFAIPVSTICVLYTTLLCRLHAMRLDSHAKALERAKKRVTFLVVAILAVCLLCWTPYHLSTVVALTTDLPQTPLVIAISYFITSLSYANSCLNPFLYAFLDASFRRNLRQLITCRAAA
Chain of 26S proteasome non-ATPase regulatory subunit 14 (O00487 whole entry): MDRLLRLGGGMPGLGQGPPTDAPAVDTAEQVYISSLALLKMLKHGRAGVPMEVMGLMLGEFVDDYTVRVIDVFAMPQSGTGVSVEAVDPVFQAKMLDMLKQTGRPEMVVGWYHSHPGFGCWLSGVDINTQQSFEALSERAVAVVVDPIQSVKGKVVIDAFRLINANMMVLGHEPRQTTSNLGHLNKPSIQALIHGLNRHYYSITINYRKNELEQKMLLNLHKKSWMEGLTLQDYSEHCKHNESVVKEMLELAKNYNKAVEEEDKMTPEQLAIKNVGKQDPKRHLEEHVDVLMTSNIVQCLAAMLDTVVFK
Chain of Dual specificity protein kinase CLK4 (Q9HAZ1 whole entry): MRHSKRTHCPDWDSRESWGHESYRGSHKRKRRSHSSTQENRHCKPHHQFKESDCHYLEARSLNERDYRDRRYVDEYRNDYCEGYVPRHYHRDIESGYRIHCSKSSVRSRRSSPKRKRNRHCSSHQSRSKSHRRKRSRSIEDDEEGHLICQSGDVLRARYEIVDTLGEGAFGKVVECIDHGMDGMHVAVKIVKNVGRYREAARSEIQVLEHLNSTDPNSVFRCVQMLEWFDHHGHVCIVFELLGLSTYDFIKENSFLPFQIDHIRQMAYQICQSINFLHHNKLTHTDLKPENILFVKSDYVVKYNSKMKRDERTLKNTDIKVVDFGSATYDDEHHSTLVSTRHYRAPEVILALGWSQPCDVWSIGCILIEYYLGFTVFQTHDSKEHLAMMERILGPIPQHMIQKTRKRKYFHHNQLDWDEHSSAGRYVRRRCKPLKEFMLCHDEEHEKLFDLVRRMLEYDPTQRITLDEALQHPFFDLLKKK
Chain of Aryl hydrocarbon receptor (P35869 whole entry): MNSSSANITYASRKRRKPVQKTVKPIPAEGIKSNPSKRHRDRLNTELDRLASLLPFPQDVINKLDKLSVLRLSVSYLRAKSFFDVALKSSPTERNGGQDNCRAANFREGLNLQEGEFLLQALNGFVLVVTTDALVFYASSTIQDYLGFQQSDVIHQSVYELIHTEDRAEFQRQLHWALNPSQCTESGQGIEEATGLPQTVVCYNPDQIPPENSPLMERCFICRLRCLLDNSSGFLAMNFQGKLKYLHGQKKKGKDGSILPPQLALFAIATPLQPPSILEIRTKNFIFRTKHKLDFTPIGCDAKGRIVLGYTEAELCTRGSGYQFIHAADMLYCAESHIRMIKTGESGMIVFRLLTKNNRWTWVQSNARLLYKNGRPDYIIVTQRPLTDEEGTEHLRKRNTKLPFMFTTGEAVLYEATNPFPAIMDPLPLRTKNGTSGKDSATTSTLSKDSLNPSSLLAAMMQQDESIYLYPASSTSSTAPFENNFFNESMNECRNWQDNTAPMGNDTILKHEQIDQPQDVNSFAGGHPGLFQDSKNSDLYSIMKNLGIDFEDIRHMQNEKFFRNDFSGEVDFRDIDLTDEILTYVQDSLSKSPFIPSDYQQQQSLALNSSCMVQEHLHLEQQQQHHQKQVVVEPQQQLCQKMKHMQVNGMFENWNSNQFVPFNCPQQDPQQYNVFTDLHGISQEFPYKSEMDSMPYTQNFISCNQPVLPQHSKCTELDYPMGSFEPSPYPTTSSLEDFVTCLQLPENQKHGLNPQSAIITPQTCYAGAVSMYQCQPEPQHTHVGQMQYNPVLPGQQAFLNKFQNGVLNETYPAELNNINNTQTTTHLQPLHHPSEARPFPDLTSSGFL
Chain of Cyclin-dependent kinase 5 (Q00535 whole entry): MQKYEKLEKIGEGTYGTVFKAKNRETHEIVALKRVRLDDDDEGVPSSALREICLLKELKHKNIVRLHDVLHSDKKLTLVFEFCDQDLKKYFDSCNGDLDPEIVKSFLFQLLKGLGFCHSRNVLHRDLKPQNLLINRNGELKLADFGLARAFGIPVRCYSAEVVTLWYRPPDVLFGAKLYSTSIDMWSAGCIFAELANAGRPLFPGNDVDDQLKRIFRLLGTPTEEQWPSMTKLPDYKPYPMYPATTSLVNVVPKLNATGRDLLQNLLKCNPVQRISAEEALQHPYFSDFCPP
Chain of Nonstructural protein 1 (Q194T2 whole entry): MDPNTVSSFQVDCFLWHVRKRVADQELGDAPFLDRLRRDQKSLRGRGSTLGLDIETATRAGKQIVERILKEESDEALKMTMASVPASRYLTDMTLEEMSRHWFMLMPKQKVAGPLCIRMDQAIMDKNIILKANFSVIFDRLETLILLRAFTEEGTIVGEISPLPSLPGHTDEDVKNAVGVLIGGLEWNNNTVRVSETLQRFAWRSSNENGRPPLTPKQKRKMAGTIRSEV

Cn1c(-c2ccccc2)cnc1NC(=O)c1cc(-c2ccccc2)on1
AC50 [1]: 117 µM (active)

CC(C)CC(=O)Nc1ccc2nc(NC(=O)c3ccccc3)sc2c1
IC50 (Caspase-3): 7.24 µM (active)
IC50 [2]: 3.07 µM (active)
IC50 [3]: 6.09 µM (active)
IC50 [4]: 6.63 µM (active)

C[C@H](CO)N1C[C@H](C)[C@@H](CN(C)Cc2ccc(Oc3ccccc3)cc2)Oc2c(NS(C)(=O)=O)cccc2C1=O
AC50 [5]: 19.5 µM (active)

CC(Nc1ccccc1)C(=O)O (stereo not drawn)
EC50 [6]: > 100 µM (inactive)

O=C1NC[C@H](Cc2ccc(O)cc2)N(CC2CCCCC2)C1=O
AC50 [5]: 19.5 µM (active)

O=c1c(Oc2ccc3cc[nH]c3c2)c(Cl)cnn1Cc1cccc2ccccc12
IC50 [7]: 1.01 µM (active)
IC50 [8]: 18.6 µM (inactive)

N#Cc1ccccc1C(C#N)c1c(Cl)cnn(Cc2cccc3ccccc23)c1=O (stereo not drawn)
IC50 [7]: 0.782 µM (active)
IC50 [8]: 9.7 µM (active)

COc1cc2cc(NC(C)=O)cc(NCCCO)c2cc1OC
IC50 (Caspase-3): 37.7 µM (active)
IC50 [2]: 29.3 µM (active)
IC50 [3]: 16.9 µM (active)
IC50 [4]: 56 µM (active)

COc1ccc(CCN(C)C(=O)CCc2ccc(Cl)c(Cl)c2)cc1OC
Ki [9]: 2 µM (active)
Ki [10]: 2.51 µM (active)

COc1cccc2sc(N)nc12
AC50 [11]: 50.1 µM (inconclusive)
AC50 (Cytochrome P450 3A4): 15.8 µM (inconclusive)

C=C1c2ccccc2CC(CCN(C)C)c2ccccc21 (stereo not drawn)
Ki [12]: 3.16 µM (active)
Ki [10]: 1.26 µM (active)

O=[N+]([O-])c1ccc(O)c(/N=C/c2sc3ccccc3c2O)c1
IC50 (Nonstructural protein 1): > 100 µM (active)
IC50 [13]: 3.28 µM (active)
IC50 (Prothrombin): 2.57 µM (active)
EC50 [14]: 5.2 µM (active)
EC50 (Streptococcus): 9.08 µM (active)
IC50 [15]: > 100 µM (inactive)
